± gives the standard deviation of the averaged measurements.

Holding throughout (assay): level (log10 ratio to DMSO vehicle control); higher = higher biomarker level / cell amount than vehicle control
Conditions in all cases: in DMSO

Compound in assay [1]: N=C(N)C(F)(F)C(F)(F)C(F)(F)C(F)(F)C(F)(F)C(F)(F)C(F)(F)F [Perfluorooctanamidine]
As to the method:
(§1)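 BioMAP Diversity Plus panel of 12 human primary cell co-culture systems (3C, 4H, LPS, SAg, BT, BF4T, BE3C, CASM3C, HDF3CGF, KF3CT, MyoF, Mphg). Compounds were added 1 h before stimulation and left for 24 h (MyoF 48 h; BT 72 h for soluble read-outs or 6 d for IgG). Biomarkers were read by ELISA, cytotoxicity by SRB, PBMC viability and proliferation by Alamar Blue. Each well value was divided by the mean of 8 DMSO control wells on the same plate and log10 transformed; duplicate blinded samples were tested at 4 concentrations.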

Compound in assay [2]: O=C(O)C(F)(F)C(F)(F)C(F)(F)C(F)(F)C(F)(F)C(F)(F)C(F)(F)C(F)(F)C(F)(F)C(F)(F)C(F)(F)C(F)(F)F [Perfluorotridecanoic acid]
As for the experimental part: as §1

Compound in assay [3]: O=P(O)(O)CCC(F)(F)C(F)(F)C(F)(F)C(F)(F)C(F)(F)C(F)(F)C(F)(F)C(F)(F)F [((Perfluorooctyl)ethyl)phosphonic acid]
As to the method:
as §1

Compound in assay [4]: Cn1cnc([N+](=O)[O-])c1Sc1ncnc2[nH]cnc12 [Azathioprine]
As to the method: as §1

Compound in assay [5]: OCC(F)(F)C(F)(F)C(F)(F)C(F)(F)C(F)(F)C(F)F [1H,1H,7H-Dodecafluoro-1-heptanol]
As for the experimental part: as §1

Compound in assay [6]: O=C(O)CCC(F)(F)C(F)(F)C(F)(F)F [3:3 Fluorotelomer carboxylic acid]
As to the method: as §1

Take BF4T:Keratin 8/18: the “level (log10)” value is -0.012 ± 0.0057 in assay [1] (6700 nM); -0.0165 ± 0.016 in assay [1] (20000 nM); 0.039 in assay [1] (60000 nM); 0.0145 ± 0.043 in assay [2] (1500 nM); -0.0005 ± 0.013 in assay [2] (4400 nM); -0.0105 ± 0.015 in assay [2] (13000 nM). Moreover, the “level (log10)” value in assay [2] (40000 nM) was 0.0135 ± 0.023; in assay [3] (6700 nM), -0.016 ± 0.017; in assay [3] (20000 nM), -0.0195 ± 0.005; in assay [3] (60000 nM), -0.0155 ± 0.042; in assay [4] (1400 nM), 0.0075 ± 0.026; in assay [4] (4200 nM) it was -0.0055 ± 0.0035. The “level (log10)” value in assay [4] (13000 nM) is -0.0115 ± 0.013; in assay [4] (38000 nM) it was 0.0115 ± 0.026; in assay [5] (6700 nM) it was -0.0025 ± 0.0021; in assay [5] (20000 nM) it was -0.0055 ± 0.012; in assay [5] (60000 nM), 0.004 ± 0.014; in assay [6] (6700 nM), 0.004 ± 0.024. Further, the “level (log10)” value in assay [6] (20000 nM) is -0.006 ± 0.0042; in assay [6] (60000 nM) it was 0.0135 ± 0.015.
Turning to BF4T:MMP-1, the “level (log10)” value in assay [1] (6700 nM) is 0.015 ± 0.02; in assay [1] (20000 nM), 0.006 ± 0.024; in assay [1] (60000 nM), 0.092; in assay [2] (1500 nM), 0 ± 0.025; in assay [2] (4400 nM), -0.005 ± 0.0057; in assay [2] (13000 nM) it was -0.0015 ± 0.013. Further, the “level (log10)” value in assay [2] (40000 nM) was 0.0045 ± 0.00071; in assay [3] (6700 nM), -0.005 ± 0.0014; in assay [3] (20000 nM), 0.0075 ± 0.022; in assay [3] (60000 nM) it was 0.007 ± 0.05; in assay [4] (1400 nM), 0 ± 0.014; in assay [4] (4200 nM) it was -0.001 ± 0.0042. For the same test system, the “level (log10)” value in assay [4] (13000 nM) was -0.003 ± 0.0042; in assay [4] (38000 nM), 0.019 ± 0.025; in assay [5] (6700 nM) it was 0.0095 ± 0.04; in assay [5] (20000 nM), 0.0145 ± 0.037; in assay [5] (60000 nM) it was 0.0245 ± 0.0092; in assay [6] (6700 nM), 0.0005 ± 0.0064. In addition, the entries for the “level (log10)” value in assay [6] (20000 nM) and in assay [6] (60000 nM) were -0.0065 ± 0.011 and -0.005 ± 0.027, respectively.
BF4T:MMP-3: the “level (log10)” value in assay [1] (6700 nM) was 0.0035 ± 0.032; in assay [1] (20000 nM), 0.003 ± 0.055; in assay [1] (60000 nM), 0.148; in assay [2] (1500 nM), 0.042 ± 0.054; in assay [2] (4400 nM) it was -0.0155 ± 0.061; in assay [2] (13000 nM), 0.0115 ± 0.032. Further, the “level (log10)” value was 0.0155 ± 0.012 in assay [2] (40000 nM); -0.013 ± 0.02 in assay [3] (6700 nM); 0.009 ± 0.011 in assay [3] (20000 nM); 0.014 ± 0.079 in assay [3] (60000 nM); 0.01 ± 0.02 in assay [4] (1400 nM); -0.02 ± 0.018 in assay [4] (4200 nM). The “level (log10)” value in assay [4] (13000 nM) is -0.015 ± 0.0057; in assay [4] (38000 nM) it was 0.0235 ± 0.052; in assay [5] (6700 nM), -0.01 ± 0.034; in assay [5] (20000 nM), -0.012 ± 0.038; in assay [5] (60000 nM) it was 0.001 ± 0.04; in assay [6] (6700 nM) it was 0.0285 ± 0.042. The results for the “level (log10)” value in assay [6] (20000 nM) and in assay [6] (60000 nM) were 0.0005 ± 0.033 and 0.018 ± 0.023, respectively.
As for BF4T:MMP-9, the “level (log10)” value in assay [1] (6700 nM) was -0.006 ± 0.0057; in assay [1] (20000 nM), -0.0115 ± 0.013; in assay [1] (60000 nM), 0.053; in assay [2] (1500 nM), 0.01 ± 0.027; in assay [2] (4400 nM), 0.0075 ± 0.043; in assay [2] (13000 nM), -0.0015 ± 0.036. The “level (log10)” value in assay [2] (40000 nM) was 0.033 ± 0.078; in assay [3] (6700 nM), -0.014 ± 0.0014; in assay [3] (20000 nM), -0.014 ± 0.011; in assay [3] (60000 nM) it was 0.0305 ± 0.021; in assay [4] (1400 nM) it was 0.0365 ± 0.087; in assay [4] (4200 nM), -0.001 ± 0.04. Moreover, the “level (log10)” value in assay [4] (13000 nM) was 0.004 ± 0.021; in assay [4] (38000 nM), 0.0215 ± 0.023; in assay [5] (6700 nM), -0.0055 ± 0.03; in assay [5] (20000 nM), -0.011 ± 0.027; in assay [5] (60000 nM), 0.0095 ± 0.046; in assay [6] (6700 nM), 0.0165 ± 0.07. Besides, the “level (log10)” value in assay [6] (20000 nM) is 0.002 ± 0.065; in assay [6] (60000 nM), 0.0285 ± 0.046.
For the test system BF4T:PAI-I, the “level (log10)” value was 0.007 ± 0.013 in assay [1] (6700 nM); -0.001 ± 0.03 in assay [1] (20000 nM); 0.03 in assay [1] (60000 nM); 0.0025 ± 0.028 in assay [2] (1500 nM); 0.005 ± 0.017 in assay [2] (4400 nM); 0.007 ± 0.02 in assay [2] (13000 nM). The “level (log10)” value in assay [2] (40000 nM) was 0.0235 ± 0.0021; in assay [3] (6700 nM) it was 0.003 ± 0.0042; in assay [3] (20000 nM), 0.0055 ± 0.011; in assay [3] (60000 nM), 0.016 ± 0.021; in assay [4] (1400 nM) it was 0.004 ± 0.017; in assay [4] (4200 nM) it was -0.001 ± 0.0099. For the same test system, the “level (log10)” value in assay [4] (13000 nM) was -0.009 ± 0.0014; in assay [4] (38000 nM) it was -0.005 ± 0.013; in assay [5] (6700 nM), 0.0055 ± 0.005; in assay [5] (20000 nM) it was -0.0035 ± 0.013; in assay [5] (60000 nM), 0.0105 ± 0.013; in assay [6] (6700 nM) it was 0.0025 ± 0.021. In addition, the “level (log10)” value was -0.011 ± 0.018 in assay [6] (20000 nM) and 0.006 ± 0.0014 in assay [6] (60000 nM).
In the case of BF4T:SRB, the “level (log10)” value in assay [1] (6700 nM) is -0.009 ± 0.0071; in assay [1] (20000 nM), -0.0085 ± 0.0035; in assay [1] (60000 nM) it was -0.004; in assay [2] (1500 nM) it was 0.009 ± 0.0042; in assay [2] (4400 nM), -0.0045 ± 0.005; in assay [2] (13000 nM), 0.0025 ± 0.011. The “level (log10)” value was 0.008 ± 0.013 in assay [2] (40000 nM); -0.008 ± 0.0028 in assay [3] (6700 nM); -0.009 ± 0.0014 in assay [3] (20000 nM); -0.0045 ± 0.0078 in assay [3] (60000 nM); 0.016 ± 0.014 in assay [4] (1400 nM); -0.0045 ± 0.0092 in assay [4] (4200 nM). Further, the “level (log10)” value in assay [4] (13000 nM) was -0.0025 ± 0.0021; in assay [4] (38000 nM), -0.005 ± 0.0028; in assay [5] (6700 nM), -0.007 ± 0.0028; in assay [5] (20000 nM), -0.01; in assay [5] (60000 nM), -0.0005 ± 0.005; in assay [6] (6700 nM), -0.008 ± 0.0057. Besides, the “level (log10)” value was -0.0105 ± 0.0035 in assay [6] (20000 nM) and 0 ± 0.0014 in assay [6] (60000 nM).
With BF4T:tPA, the “level (log10)” value is 0.004 ± 0.014 in assay [1] (6700 nM); -0.027 ± 0.069 in assay [1] (20000 nM); 0.028 in assay [1] (60000 nM); 0.025 ± 0.05 in assay [2] (1500 nM); -0.009 ± 0.017 in assay [2] (4400 nM); -0.0045 ± 0.015 in assay [2] (13000 nM). Also, the “level (log10)” value in assay [2] (40000 nM) is -0.0085 ± 0.018; in assay [3] (6700 nM), 0.0055 ± 0.013; in assay [3] (20000 nM), 0.0645 ± 0.005; in assay [3] (60000 nM), 0.072 ± 0.054; in assay [4] (1400 nM), 0.005 ± 0.048; in assay [4] (4200 nM), -0.034 ± 0.011. Further, the “level (log10)” value was -0.071 ± 0.023 in assay [4] (13000 nM); -0.0935 ± 0.053 in assay [4] (38000 nM); 0.0045 ± 0.0078 in assay [5] (6700 nM); -0.0025 ± 0.00071 in assay [5] (20000 nM); 0.01 ± 0.011 in assay [5] (60000 nM); 0.004 ± 0.031 in assay [6] (6700 nM). In addition, the “level (log10)” value is -0.0005 ± 0.015 in assay [6] (20000 nM) and 0.015 ± 0.0099 in assay [6] (60000 nM).

For the origin of these results see the supplement of paper PMC10331698.
